Assays:
Type in all cases: biochemical
MMP-9 = MMP-9 (Homo sapiens, UniProt P14780); assay: Assay for inhibitory activities on MMPs (fluorogenic peptide substrate), MMP-9
Excerpt: MMP-9 was isolated and purified by the procedure of Y. Okada et al. (Yasunori Okada, Yukio Gonoji, Katsumi Naka, Katsuro Tomita, Isao Nakanishi, Kazushi Iwata, Kyoko Yamashita, and Taro Hayakawa: Matrix metalloproteinase 9 (92-kDa gelatinase/type IV collagenase) from HT1080 human fibrosarcoma cells. Purification and activation of the precursor and enzymic properties, J. Biol. Chem., 1992, 267, 21712-21719) in combination with other following methods: 1) Yasunori Okada, Tatsuhisa Morodomi, Jan J, Enghild, Ko Suzuki, Atsushi Yasui, Isao Nakanishi, Guy Salvesen and Hideaki Nagase: Matrix metalloproteinase 2 from human rheumatoid synovial fibroblasts. Purification and activation of the precursor and enzymic properties, Eur. J. Biochem., 1990, 194, 721-730; 2) Robin V Ward, Rosalind M Hembry, John J Reynolds and Gillian Murphy: The purification of tissue inhibitor of metalloproteinase-2 from its 72 kDa progelatinase complex. Biochem. J., 1991, 278, 179-187. In detail, human fibrosarcoma ATCC HT1080 cell line was cultured to confluent in Dulbecco's Modified Medium (DMEM) containing 10% fetal-calf serum at 37° C. for 48 hours. Subsequently, the medium of confluent culture was changed to serum-free DMEM medium. To obtain MMP-9, phorbol-12-myristate-13-acetate (TPA) must be added to this serum-free DMEM medium at a concentration of 50 ng/ml. The TPA-treated medium was centrifuged at 3000 rpm for 15 min, and the supernatant was concentrated to 450 ml by a Toyo-Roshi UP-20 apparatus with an ultrafiltration membrane. Then, proMMP-9 in this concentrated solution was purified by using columns of Gelatin-Sepharose and Concanavalin A-Sepharose. The pool containing proMMP-9 was dialyzed, concentrated (Toyo-Roshi UP-20) and applied to columns of Sephacryl S-200 and Green A matrix for the separation from TIMPs. The obtained proMMP-9 fraction was activated by TPCK-Trypsin (Final conc.: 3 μg/501 React Mix.).
(§1) The enzymatic activity on MMPs was analyzed by the method described in “C. Graham Knight, Frances Willenbrock and Gillian Murphy: A novel coumarin-labelled peptide for sensitive continuous assays of the matrix metalloproteinases: FEBS LETT., 296, (1992), 263-266”. The substrate: MOCAc-Pro-Leu-Gly-Leu-A2Pr(DNP)-Ala-Arg-NH2 was purchased from Peptide Institute, Inc., Osaka, Japan. The measurement of the inhibitory activities (IC50) was carried out by the following four methods;
(§2) (A) Reaction with substrate, enzyme (MMPs) and inhibitor
(§3) (B) Reaction with substrate and inhibitor, without enzyme
(§4) (C) Reaction with substrate and enzyme (MMPs), without inhibitor
(§5) (D) Reaction with substrate only
(§6) IC50 values were calculated by using the following formula and each fluorescence values of above four methods (A to D).
(§7) % inhibition={1-(A−B)/(C−D)}×100
(§8) IC50 means the concentration required to inhibit 50% of the enzyme activity.
(§9) The value of inhibitory activity against MMP-2, MMP-8, MMP-9, MMP-12, and MMP-13 measured by above mentioned methods are shown in Table 25 and 26.

MMP-13 = target: T1, MMP-13 (Homo sapiens, UniProt P45452); assay: Assay for inhibitory activities on MMPs (fluorogenic peptide substrate), MMP-13
T1 construct: catalytic domain (^104Tyr˜^267Gly) was amplified with RT-PCR; His-tag; enterokinase digestion-site
Method: In regard to MMP-13, mRNA was prepared from carcinoma cell SW1353 derived from human cartilage stimulate by IL-1 and TNF, and catalytic domain (^[…]) was amplified with RT-PCR. This was cloned in Escherichia coli expression vector […] inserted with His-tag sequence and enterokinase digestion-site, induced and expressed by IPTG (Isopropyl-β-D-thiogalactopyranoside) and expressed in an insoluble fraction. Isolation of MMP-13 from an insoluble fraction was carried out by dissolving in modifier (6 M urea) by a usual method and purification with metal chelate chromatography (Ni […] Sepharose). And then removing modifier (6 M urea) with dialyze and refolding of the enzyme spontaneously gave activated MMP-13. The enzymatic activity on MMPs was analyzed by the method described in “C. Graham Knight, Frances Willenbrock and Gillian Murphy: A novel coumarin-labelled peptide for sensitive continuous assays of the matrix metalloproteinases: FEBS LETT., 296, (1992), 263-266”. The substrate: MOCAc-[…] was purchased from Peptide Institute, Inc., Osaka, Japan. The measurement of the inhibitory activities (IC50) was carried out by the following four methods; (A) Reaction with substrate, enzyme (MMPs) and inhibitor (B) Reaction with substrate and inhibitor, without enzyme (C) Reaction with substrate and enzyme (MMPs), without inhibitor (D) Reaction with substrate only IC50 values were calculated by using the following formula and each fluorescence values of above four methods (A to D). % inhibition={1-(A-B)/(C-D)}×100 IC50 means the concentration required to inhibit 50% of the enzyme activity. The value of inhibitory activity against MMP-2, MMP-8, MMP-9, MMP-12, and MMP-13 measured by above mentioned methods are shown in Table 25 and 26.

MMP-2 = target: T2, MMP-2 (Homo sapiens, UniProt P08253); assay: Assay for inhibitory activities on MMPs (fluorogenic peptide substrate), MMP-2
T2 sequence (P08253 110-660): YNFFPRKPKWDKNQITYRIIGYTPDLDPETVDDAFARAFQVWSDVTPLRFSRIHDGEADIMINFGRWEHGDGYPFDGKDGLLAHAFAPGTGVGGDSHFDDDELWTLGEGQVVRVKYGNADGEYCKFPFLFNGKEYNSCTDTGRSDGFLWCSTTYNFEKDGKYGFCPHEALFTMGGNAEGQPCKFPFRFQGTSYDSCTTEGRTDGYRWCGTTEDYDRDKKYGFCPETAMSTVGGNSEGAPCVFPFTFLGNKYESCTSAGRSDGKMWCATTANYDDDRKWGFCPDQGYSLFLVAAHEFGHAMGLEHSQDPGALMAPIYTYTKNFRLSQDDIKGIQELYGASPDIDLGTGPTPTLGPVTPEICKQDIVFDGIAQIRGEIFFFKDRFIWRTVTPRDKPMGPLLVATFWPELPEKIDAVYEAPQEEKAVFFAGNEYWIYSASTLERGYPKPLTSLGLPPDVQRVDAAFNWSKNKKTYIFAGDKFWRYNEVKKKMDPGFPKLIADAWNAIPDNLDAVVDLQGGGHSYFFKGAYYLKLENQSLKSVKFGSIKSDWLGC
Method: MMP-2 was purchased from Calbiochem-Novabiochem International, Inc.
as §1, §2, §3, §4, §5, §6, §7, §8, §9

MMP-12 = target: T3, MMP-12 (Homo sapiens, UniProt P39900); assay: Assay for inhibitory activities on MMPs (fluorogenic peptide substrate), MMP-12
T3 construct: In regard to MMP-12, catalytic domain (^100Phe˜^263Gly) was amplified with RT-PCR; His-tag; enterokinase digestion-site
T3 sequence (P39900 100-263): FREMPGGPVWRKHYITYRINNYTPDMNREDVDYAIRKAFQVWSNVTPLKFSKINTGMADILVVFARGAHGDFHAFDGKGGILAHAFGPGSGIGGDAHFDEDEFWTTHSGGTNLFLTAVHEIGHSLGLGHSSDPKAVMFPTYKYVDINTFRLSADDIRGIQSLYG
Method: In regard to MMP-12, catalytic domain (^100Phe˜^263Gly) was amplified with RT-PCR from Human Placenta Total RNA. This was cloned in Escherichia coli expression vector pTrc99AHE inserted with His-tag sequence and enterokinase digestion-site, induced and expressed by IPTG (Isopropyl-β-D-thiogalactopyranoside) and expressed in an insoluble fraction. Isolation of MMP-12 from an insoluble fraction was carried out by dissolving in modifier (6 M urea) by a usual method and purification with metal chelate chromatography (Ni Chelateing Sepharose). And then removing modifier (6 M urea) with dialysis and refolding of the enzyme spontaneously gave activated MMP-12.
as §1, §2, §3, §4, §5, §6, §7, §8, §9

MMP-8 = target: T4, MMP-8 (Homo sapiens, UniProt P22894); assay: Assay for inhibitory activities on MMPs (fluorogenic peptide substrate), MMP-8
T4 construct: In regard to MMP-8, catalytic domain (^99Phe˜^262Gly) was amplified with PCR; His-tag; enterokinase digestion-site
T4 sequence (P22894 99-262): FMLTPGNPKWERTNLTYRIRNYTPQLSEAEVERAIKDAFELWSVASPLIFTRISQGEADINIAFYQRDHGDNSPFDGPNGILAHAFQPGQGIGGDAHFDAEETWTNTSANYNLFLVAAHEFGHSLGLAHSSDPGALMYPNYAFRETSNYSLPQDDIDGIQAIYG
Excerpt: In regard to MMP-8, catalytic domain (^99Phe˜^262Gly) was amplified with PCR using commercial available Human Bone Marrow cDNA. This was cloned in Escherichia coli expression vector pTrc99AHE inserted with His-tag sequence and enterokinase digestion-site, induced and expressed by IPTG (Isopropyl-β-D-thiogalactopyranoside) and expressed in a insoluble fraction (Than F. Ho, M. Walid Qoronfleh, Robert C. Wahl, Trica A. Pulvino, Karen J. Vavra, Joe Falvo, Tracey M. Banks, Patricia G. Brake and Richard B. Ciccarelli: Gene expression, purification and characterization of recombinant human neutrophil collagenase. Gene 146, (1994) 297-301. It was prepared by the method in a slight modification). Isolation of MMP-8 from an insoluble fraction was carried out by dissolving in modifier (6 M urea) by a usual method and purification with metal chelate chromatography. And then removing modifier (6 M urea) with dialysis and refolding of the enzyme spontaneously gave activated MMP-8.
as §1, §2, §3, §4, §5, §6, §7, §8, §9

Chain of MMP-9 (P14780 107-707): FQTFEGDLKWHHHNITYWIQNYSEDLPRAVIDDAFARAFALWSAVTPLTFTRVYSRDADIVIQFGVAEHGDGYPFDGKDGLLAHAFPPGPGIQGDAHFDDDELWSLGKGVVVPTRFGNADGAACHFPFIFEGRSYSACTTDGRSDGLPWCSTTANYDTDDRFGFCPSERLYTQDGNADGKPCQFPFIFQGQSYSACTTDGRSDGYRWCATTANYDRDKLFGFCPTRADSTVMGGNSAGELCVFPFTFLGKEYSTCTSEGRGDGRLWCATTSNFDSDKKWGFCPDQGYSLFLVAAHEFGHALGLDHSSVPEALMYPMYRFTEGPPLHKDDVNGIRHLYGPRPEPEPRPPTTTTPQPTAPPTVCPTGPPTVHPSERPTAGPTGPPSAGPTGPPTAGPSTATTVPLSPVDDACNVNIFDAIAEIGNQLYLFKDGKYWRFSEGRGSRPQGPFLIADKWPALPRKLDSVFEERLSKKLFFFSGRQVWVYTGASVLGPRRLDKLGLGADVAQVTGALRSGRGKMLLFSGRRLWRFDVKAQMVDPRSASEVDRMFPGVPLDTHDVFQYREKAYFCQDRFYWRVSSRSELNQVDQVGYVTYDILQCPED

| IC50 (MMP-9) | IC50 (MMP-13) | IC50 (MMP-2) | IC50 (MMP-12) | IC50 (MMP-8) | Structure (SMILES) |
| --- | --- | --- | --- | --- | --- |
| > 10 µM | 35.7 nM | 8990 nM | 888 nM | 270 nM | O=C(O)[C@H](Cc1ccccc1)NS(=O)(=O)c1ccc(-c2ccc(C#Cc3ccc4ccccc4c3)cc2)cc1 [III-12] |
| > 10 µM | 136 nM | > 10000 nM | > 10000 nM | > 10000 nM | O=C(Nc1ccc(-c2ccc(S(=O)(=O)N[C@H](Cc3ccccc3)C(=O)O)cc2)cc1)c1cc2ccccc2s1 [VI-47] |
| > 10 µM | 65.1 nM | > 10000 nM | 7970 nM | > 10000 nM | O=C(Nc1ccc(-c2ccc(S(=O)(=O)N[C@@H](Cc3ccccc3)C(=O)O)cc2)cc1)c1ccc2ccccc2c1 [VI-36] |
| > 10 µM | 68.7 nM | 2220 nM | 232 nM | 215 nM | COc1ccc(C(=O)Nc2ccc(-c3ccc(S(=O)(=O)N[C@@H](CCSC)C(=O)O)cc3)cc2)cc1OC [VI-35] |
| > 10 µM | 2.71 nM | 58.9 nM | 36.8 nM | 33.3 nM | COc1ccc2cc(C#Cc3ccc(-c4ccc(S(=O)(=O)N[C@H](CCC(=O)O)C(=O)O)cc4)cc3)ccc2c1 [III-27] |
| > 10 µM | 48.4 nM | 502 nM | 162 nM | 252 nM | CSCC[C@H](NS(=O)(=O)c1ccc(-c2ccc(NC(=O)c3ccc4ccccc4c3)cc2)cc1)C(=O)O [VI-44] |
| > 10 µM | 55.5 nM | 222 nM | 801 nM | > 10000 nM | COc1ccc(C(=O)Nc2ccc(-c3ccc(S(=O)(=O)N[C@H](C)C(=O)O)cc3)cc2)cc1 [VI-15] |
| > 10 µM | 24.2 nM | 2850 nM | 117 nM | 89.3 nM | COc1ccc2cc(C#Cc3ccc(-c4ccc(S(=O)(=O)N[C@@H](CCSC)C(=O)O)cc4)cc3)ccc2c1 [III-25] |
| 4.34 µM | 33.3 nM | 156 nM | 611 nM | 2350 nM | O=C(Nc1ccc(-c2ccc(S(=O)(=O)N[C@H](Cc3ccccc3)C(=O)O)cc2)cc1)c1cccs1 [VI-7] |
| > 10 µM | 26.2 nM | 3720 nM | 95.7 nM | 140 nM | CC(C)[C@@H](NS(=O)(=O)c1ccc(-c2ccc(COc3ccc4ccccc4c3)cc2)cc1)C(=O)O [VII-12] |
| > 10 µM | 3.85 nM | 5410 nM | > 10000 nM | 519 nM | COc1ccc2cc(C#Cc3ccc(-c4ccc(S(=O)(=O)N[C@H](CC(=O)O)C(=O)O)cc4)cc3)ccc2c1 [III-26] |
| > 10 µM | 35.6 nM | 127 nM | 952 nM | > 10000 nM | Cc1ccc(C(=O)Nc2ccc(-c3ccc(S(=O)(=O)N[C@H](C)C(=O)O)cc3)cc2)cc1 [VI-17] |
| > 10 µM | 22.2 nM | 292 nM | > 10000 nM | > 10000 nM | O=C(Nc1ccc(-c2ccc(S(=O)(=O)N[C@H](Cc3ccccc3)C(=O)O)s2)cc1)c1ccc2ccccc2c1 [VI-51] |
| > 10 µM | 13.7 nM | 243 nM | 66.9 nM | 63.2 nM | CCC(C)[C@H](NS(=O)(=O)c1ccc(-c2ccc(NC(=O)c3ccc4ccccc4c3)cc2)cc1)C(=O)O (stereo partly drawn) [VI-43] |
| > 10 µM | 19.9 nM | > 10000 nM | > 10000 nM | > 10000 nM | COc1ccc2cc(C#Cc3ccc(-c4ccc(S(=O)(=O)N[C@@H](C)C(=O)O)cc4)cc3)ccc2c1 [III-18] |
| > 10 µM | 50.1 nM | 660 nM | 1230 nM | 623 nM | COc1cccc(C(=O)Nc2ccc(-c3ccc(S(=O)(=O)N[C@H](Cc4ccccc4)C(=O)O)cc3)cc2)c1 [VI-5] |
| > 10 µM | 143 nM | > 10000 nM | > 10000 nM | > 10000 nM | COc1ccc2cc(C#Cc3ccc(-c4ccc(S(=O)(=O)NC(Cc5ccc(F)cc5)C(=O)O)cc4)cc3)ccc2c1 (stereo not drawn) [III-47] |
| > 10 µM | 6.32 nM | 239 nM | 146 nM | 190 nM | COc1ccc2cc(C#Cc3ccc(-c4ccc(S(=O)(=O)N[C@H](CCSC)C(=O)O)cc4)cc3)ccc2c1 [III-24] |

— US20080119513A1, “Sulfonamide Derivative Selectively Inhibiting Mmp-13” (priority 2004, published 2008)
